# Reference: patent US20260125382A1, “COMPOUNDS FOR INHIBITING OR DEGRADING CDK2 AND/OR CDK9 AND MEDICINAL USE THEREOF” (KOREA RESEARCH INSTITUTE OF CHEMICAL TECHNOLOGY, priority 2022, published 2026)
# Key:
# [1] = molecular target: T1, CDK9 (Homo sapiens, UniProt P50750); assay: CDK protein degradation activity (Western blotting), CDK9; assay type: cell-based; settings: MDA-MB-231 cells, 16 hours, Western blot
# T1 construct: endogenous in cells; host or cells: MDA-MB-231
# Method in brief: (§1)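 MDA-MB-231; cmpd 100 nM / 1 μM / 10 μM final vs DMSO, 16 h. Triton X-100 lysates (pH 7.5, phosphatase/protease inhibitors) → SDS-PAGE → Western blot, anti-CDK2, anti-CDK9, tubulin loading control; densitometry.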
# [2] = molecular target: T2, CDK2 (Homo sapiens, UniProt P24941); assay: CDK protein degradation activity (Western blotting), CDK2; assay type: cell-based; settings: MDA-MB-231 cells, 16 hours, Western blot
# T2 construct: endogenous in cells; host or cells: MDA-MB-231
# Method in brief: as §1
# T1 sequence (P50750 whole entry): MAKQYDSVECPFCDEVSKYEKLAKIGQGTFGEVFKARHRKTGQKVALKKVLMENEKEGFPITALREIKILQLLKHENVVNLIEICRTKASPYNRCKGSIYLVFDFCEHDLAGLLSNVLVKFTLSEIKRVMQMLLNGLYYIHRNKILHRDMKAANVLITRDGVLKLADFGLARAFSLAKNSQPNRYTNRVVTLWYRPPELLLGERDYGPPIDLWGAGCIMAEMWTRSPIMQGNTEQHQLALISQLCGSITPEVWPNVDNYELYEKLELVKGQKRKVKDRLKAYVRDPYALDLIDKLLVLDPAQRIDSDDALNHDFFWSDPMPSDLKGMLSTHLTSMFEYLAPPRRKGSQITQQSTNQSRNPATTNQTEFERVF
Structure (SMILES),Enzyme degradation CDK9 (% remaining) @ 0.1 μM [1],Enzyme degradation CDK9 (% remaining) @ 1 μM [1],Enzyme degradation CDK9 (% remaining) @ 10 μM [1],Enzyme degradation CDK2 (% remaining) @ 0.1 μM [2],Enzyme degradation CDK2 (% remaining) @ 1 μM [2],Enzyme degradation CDK2 (% remaining) @ 10 μM [2]
"O=C1CC[C@H](N2C(=O)c3ccc(N4CCC(CN5CCN(c6ccc(Nc7ncnc8c7ncn8C7CC(NC(=O)c8cccc(C(F)(F)F)n8)C7)cc6)CC5)CC4)cc3C2=O)C(=O)N1 (stereo partly drawn) [Compound 393, N-((1s,3s)-3-(6-((4-(4-((1-(2-(2,6-dioxopiperidin-3-yl)-1,3-dioxoisoindolin-5-yl)piperidin-4-yl)methyl)piperazin-1-yl)phenyl)amino)-9H-purin-9-yl)cyclobutyl)-6-(trifluoromethyl)picolinamide]",0/0/0%,0/0/0%,0/0/0%,10/10/10%,10/10/10%,10/10/10%
"O=C1CC[C@H](N2C(=O)c3ccc(N4CC(C(=O)N5CCC(CN6CCN(c7ccc(Nc8ncnc9c8ncn9[C@H]8C[C@@H](NC(=O)c9c(Cl)cccc9Cl)C8)cc7)CC6)CC5)C4)cc3C2=O)C(=O)N1 [Compound 394, 2,6-dichloro-N-((1s,3s)-3-(6-((4-(4-((1-(1-(2-(2,6-dioxopiperidin-3-yl)-1,3-dioxoisoindolin-5-yl)azetidin-3-carbonyl)piperidin-4-yl)methyl)piperazin-1-yl)phenyl)amino)-9H-purin-9-yl)cyclobutyl)benzamide]",0/0/0%,0/0/0%,0/0/0%,20/20/20%,20/20/20%,20/20/20%
"O=C1CC[C@H](N2C(=O)c3ccc(N4CCC(C(=O)N5CCC(CN6CCN(c7ccc(Nc8ncnc9c8ncn9C8CC(NC(=O)c9c(Cl)cccc9Cl)C8)cc7)CC6)CC5)CC4)cc3C2=O)C(=O)N1 (stereo partly drawn) [Compound 395, 2,6-dichloro-N-((1s,3s)-3-(6-((4-(4-((1-(1-(2-(2,6-dioxopiperidin-3-yl)-1,3-dioxoisoindolin-5-yl)piperidin-4-carbonyl)piperidin-4-yl)methyl)piperazin-1-yl)phenyl)amino)-9H-purin-9-yl)cyclobutyl)benzamide]",0/0/0%,0/0/0%,0/0/0%,20/20/20%,20/20/20%,20/20/20%
"O=C1CCC(N2C(=O)c3ccc(N4CCC(CN5CCC(CCNc6ncnc7c6ncn7[C@H]6C[C@@H](NC(=O)c7c(Cl)cccc7Cl)C6)CC5)CC4)cc3C2=O)C(=O)N1 (stereo partly drawn) [Compound 396, 2,6-dichloro-N-((1s,3s)-3-(6-((2-(1-((1-(2-(2,6-dioxopiperidin-3-yl)-1,3-dioxoisoindolin-5-yl)piperidin-4-yl)methyl)piperidin-4-yl)ethyl)amino)-9H-purin-9-yl)cyclobutyl)benzamide]",20/20/20%,20/20/20%,20/20/20%,20%,30%,30%
"O=C1CC[C@H](N2C(=O)c3cc(F)c(N4CCC(CN5CCC(CCNc6ncnc7c6ncn7[C@H]6C[C@@H](NC(=O)c7c(Cl)cccc7Cl)C6)CC5)CC4)cc3C2=O)C(=O)N1 [Compound 397, 2,6-dichloro-N-((1s,3s)-3-(6-((2-(1-((1-(2-(2,6-dioxopiperidin-3-yl)-6-fluoro-1,3-dioxoisoindolin-5-yl)piperidin-4-yl)methyl)piperidin-4-yl)ethyl)amino)-9H-purin-9-yl)cyclobutyl)benzamide]",70%,10%,10%,50%,30%,30%
"O=C1CC[C@H](n2nnc3ccc(N4CCC(CN5CCC(CCNc6ncnc7c6ncn7C6CC(NC(=O)c7c(Cl)cccc7Cl)C6)CC5)CC4)cc3c2=O)C(=O)N1 (stereo partly drawn) [Compound 398, 2,6-dichloro-N-((1s,3s)-3-(6-((2-(1-((1-(3-(2,6-dioxopiperidin-3-yl)-4-oxo-3,4-dihydrobenzo[d][1,2,3]triazin-6-yl)piperidin-4-yl)methyl)piperidin-4-yl)ethyl)amino)-9H-purin-9-yl)cyclobutyl)benzamide]",20%,10%,10%,20%,30%,30%
"O=C1CC[C@H](N2C(=O)c3ccc(N4CC(C(=O)N5CCC(CN6CCC(CCNc7ncnc8c7ncn8C7CC(NC(=O)c8c(Cl)cccc8Cl)C7)CC6)CC5)C4)cc3C2=O)C(=O)N1 (stereo partly drawn) [Compound 399, 2,6-dichloro-N-((1s,3s)-3-(6-((2-(1-((1-(1-(2-(2,6-dioxopiperidin-3-yl)-1,3-dioxoisoindolin-5-yl)azetidin-3-carbonyl)piperidin-4-yl)methyl)piperidin-4-yl)ethyl)amino)-9H-purin-9-yl)cyclobutyl)benzamide]",0/0/0%,0/0/0%,0/0/0%,30%,40%,40%

# The next lines start with the values.
Enzyme degradation CDK9 (% remaining) @ 0.1 μM [1],Enzyme degradation CDK9 (% remaining) @ 1 μM [1],Enzyme degradation CDK9 (% remaining) @ 10 μM [1],Enzyme degradation CDK2 (% remaining) @ 0.1 μM [2],Enzyme degradation CDK2 (% remaining) @ 1 μM [2],Enzyme degradation CDK2 (% remaining) @ 10 μM [2],Structure (SMILES)
0/0/0%,0/0/0%,0/0/0%,30%,30%,40%,"O=C1CCC(N2C(=O)c3ccc(N4CCC(C(=O)N5CCC(CN6CCC(CCNc7ncnc8c7ncn8[C@H]7C[C@@H](NC(=O)c8c(Cl)cccc8Cl)C7)CC6)CC5)CC4)cc3C2=O)C(=O)N1 (stereo partly drawn) [Compound 400, 2,6-dichloro-N-((1s,3s)-3-(6-((2-(1-((1-(1-(2-(2,6-dioxopiperidin-3-yl)-1,3-dioxoisoindolin-5-yl)piperidin-4-carbonyl)piperidin-4-yl)methyl)piperidin-4-yl)ethyl)amino)-9H-purin-9-yl)cyclobutyl)benzamide]"
0/0/0%,0/0/0%,0/0/0%,30%,20%,20%,"Cc1cccc(C(=O)N[C@H]2C[C@@H](n3cnc4c(Nc5ccc(N6CCN(CC7CCN(C(=O)C8CN(c9ccc%10c(c9)C(=O)N([C@H]9CCC(=O)NC9=O)C%10=O)C8)CC7)CC6)cc5)ncnc43)C2)n1 [Compound 401, N-((1s,3s)-3-(6-((4-(4-((1-(1-(2-(2,6-dioxopiperidin-3-yl)-1,3-dioxoisoindolin-5-yl)azetidin-3-carbonyl)piperidin-4-yl)methyl)piperazin-1-yl)phenyl)amino)-9H-purin-9-yl)cyclobutyl)-6-methylpicolinamide]"
0/0/0%,0/0/0%,0/0/0%,70%,50%,50%,"Cc1cccc(C(=O)NC2CC(n3cnc4c(NCCC5CCN(CC6CCN(CC7CN(c8ccc9c(c8)C(=O)N([C@H]8CCC(=O)NC8=O)C9=O)C7)CC6)CC5)ncnc43)C2)n1 (stereo partly drawn) [Compound 402, N-((1s,3s)-3-(6-((2-(1-((1-((1-(2-(2,6-dioxopiperidin-3-yl)-1,3-dioxoisoindolin-5-yl)azetidin-3-yl)methyl)piperidin-4-yl)methyl)piperidin-4-yl)ethyl)amino)-9H-purin-9-yl)cyclobutyl)-6-methylpicolinamide]"
0/0/0%,0/0/0%,0/0/0%,60%,60%,90%,"Cc1cccc(C(=O)NC2CC(n3cnc4c(Nc5ccc(N6CCN(C7CC8(CCN(C(=O)C9CCN(c%10ccc%11c(c%10)C(=O)N([C@H]%10CCC(=O)NC%10=O)C%11=O)CC9)CC8)C7)CC6)cc5)ncnc43)C2)n1 (stereo partly drawn) [Compound 403, N-((1s,3s)-3-(6-((4-(4-(7-(1-(2-(2,6-dioxopiperidin-3-yl)-1,3-dioxoisoindolin-5-yl)piperidin-4-carbonyl)-7-azaspiro[3.5]nonan-2-yl)piperazin-1-yl)phenyl)amino)-9H-purin-9-yl)cyclobutyl)-6-methylpicolinamide]"
0/0/0%,0/0/0%,0/0/0%,50/50/50%,50/50/50%,50/50/50%,"O=C1CC[C@H](N2C(=O)c3ccc(N4CCC(CCN5CCN(c6ccc(Nc7ncnc8c7ncn8[C@H]7C[C@@H](NC(=O)c8c(Cl)cccc8Cl)C7)cc6)CC5)CC4)cc3C2=O)C(=O)N1 [Compound 405, 2,6-dichloro-N-((1s,3s)-3-(6-((4-(4-(2-(1-(2-(2,6-dioxopiperidin-3-yl)-1,3-dioxoisoindolin-5-yl)piperidin-4-yl)ethyl)piperazin-1-yl)phenyl)amino)-9H-purin-9-yl)cyclobutyl)benzamide]"
